Measurements from patent US7781421B2, “Neuroactive 13, 24-cyclo-18, 21-dinorcholanes and structurally related pentacyclic steriods” (Washington University, priority 2003, dated 2010).
Several values for one entry are separate records, joined by “and”; a condition that tells them apart may be missing. Equal entries are not always repeated.

How the values were obtained:
[1] = molecular target: GABAA receptor ([35S]-TBPS binding site, rat brain cortical membranes); assay: Displacement of [35S]-TBPS binding, rat brain cortical membranes; settings: 5 μM GABA, 2 nM [35S]-TBPS; ± standard error of the means
Method in brief: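 Rat cortical P2 membranes (0.5 mg/mL protein) incubated 2 h at room temperature with 2 nM [35S]-TBPS, 5 μM GABA and steroid (1 nM–10 μM) in 200 mM NaCl/50 mM potassium phosphate, pH 7.4. Filter-bound radioactivity counted; IC50 from Hill equation fit, triplicate points.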

[2] = molecular target: T1, rat α1β2γ2 GABAA Receptor (Rattus norvegicus, UniProt P18508+P62813+P63138, INS375LLRMFSFK); assay: Xenopus oocyte two-electrode voltage-clamp electrophysiology; assay type: cell-based; settings: for Oocyte electrophysiology, ratio of currents in presence/absence of compound, 10 μM: 10 μM compound co-applied with 2 μM GABA; for Oocyte electrophysiology, ratio of currents in presence/absence of compound, 10 μM / Oocyte electrophysiology, ratio of currents in presence/absence of compound, 0.1 μM / Oocyte electrophysiology, ratio of currents in presence/absence of compound, 1 μM: −70 mV; for Oocyte electrophysiology, ratio of currents in presence/absence of compound, 0.1 μM: 0.1 μM compound co-applied with 2 μM GABA; for Oocyte electrophysiology, ratio of currents in presence/absence of compound, 1 μM: 1 μM compound co-applied with 2 μM GABA; for Gating (10 μM), ratio of compound only current/2 μM GABA current: direct current gated by 10 μM compound in the absence of GABA
T1 construct: from linearized pBluescript vectors containing receptor coding regions; expressed in transfected cells; host or cells: Xenopus laevis oocytes injected with in vitro transcribed capped mRNA
Method in brief: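 Oocytes injected with rat α1, β2, γ2L mRNA, voltage-clamped at −70 mV 2-5 days later in ND96. Compounds co-applied with 2 μM GABA for 20 s; peak current ratio with/without compound, n≥4 oocytes. (G): current from 10 μM compound alone, as ratio to 2 μM GABA current.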

Xenopus laevis tadpoles = assay: Tadpole loss of righting (LRR) and swimming (LSR) reflexes; assay type: in vivo; settings: 3 h equilibration at room temperature; for EC50: Xenopus laevis, 3 h, read-out: LSR EC50 (loss of swimming response)
Method in brief: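 Groups of 10 early prelimb-bud Xenopus laevis tadpoles were held for 3 h at room temperature in oxygenated Ringer's containing compound (DMSO ≤0.1%). Loss of righting was scored as failure to right within 5 sec after flipping, and loss of swimming as failure to swim when touched. EC50 came from a Hill equation fit.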

T1 sequence (P62813 28-455, stated change not applied): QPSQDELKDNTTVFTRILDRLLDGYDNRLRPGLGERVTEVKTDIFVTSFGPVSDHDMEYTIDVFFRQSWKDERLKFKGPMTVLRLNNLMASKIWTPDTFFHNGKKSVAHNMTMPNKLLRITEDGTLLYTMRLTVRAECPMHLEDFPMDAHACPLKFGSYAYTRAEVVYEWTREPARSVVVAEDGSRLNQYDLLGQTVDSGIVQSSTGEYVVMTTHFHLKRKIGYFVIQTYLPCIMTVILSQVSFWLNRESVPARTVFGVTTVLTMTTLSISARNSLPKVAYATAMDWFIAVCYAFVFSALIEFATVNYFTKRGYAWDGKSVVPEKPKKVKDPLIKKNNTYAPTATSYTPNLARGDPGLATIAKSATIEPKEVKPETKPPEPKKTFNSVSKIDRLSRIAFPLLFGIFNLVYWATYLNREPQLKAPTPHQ
T1 sequence (P63138 26-474, stated change not applied): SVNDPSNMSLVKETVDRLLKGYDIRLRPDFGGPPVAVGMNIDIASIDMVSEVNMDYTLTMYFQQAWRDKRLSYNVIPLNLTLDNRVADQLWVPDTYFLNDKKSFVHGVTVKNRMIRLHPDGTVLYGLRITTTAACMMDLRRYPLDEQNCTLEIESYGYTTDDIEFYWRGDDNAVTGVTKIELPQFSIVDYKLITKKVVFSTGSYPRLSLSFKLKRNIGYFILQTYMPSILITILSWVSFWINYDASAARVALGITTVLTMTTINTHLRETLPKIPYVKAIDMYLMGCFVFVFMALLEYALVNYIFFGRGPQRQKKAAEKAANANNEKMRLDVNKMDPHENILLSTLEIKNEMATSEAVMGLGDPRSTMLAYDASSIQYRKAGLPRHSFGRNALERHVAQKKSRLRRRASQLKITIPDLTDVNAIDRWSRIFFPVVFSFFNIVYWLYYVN
T1 sequence (P18508 with tags, fused parts or gaps INS375LLRMFSFK): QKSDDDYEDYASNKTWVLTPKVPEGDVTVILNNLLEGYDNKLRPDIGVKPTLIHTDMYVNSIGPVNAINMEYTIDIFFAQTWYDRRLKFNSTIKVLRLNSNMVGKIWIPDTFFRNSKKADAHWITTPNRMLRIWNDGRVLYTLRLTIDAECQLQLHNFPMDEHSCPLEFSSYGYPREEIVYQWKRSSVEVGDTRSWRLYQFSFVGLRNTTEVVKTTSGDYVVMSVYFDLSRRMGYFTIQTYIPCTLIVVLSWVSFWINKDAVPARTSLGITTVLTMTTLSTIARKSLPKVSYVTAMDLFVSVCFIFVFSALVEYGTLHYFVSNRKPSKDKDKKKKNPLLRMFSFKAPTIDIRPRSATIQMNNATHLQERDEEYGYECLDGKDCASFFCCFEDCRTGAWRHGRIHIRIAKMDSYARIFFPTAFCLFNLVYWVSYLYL

SMILES | IC50 [1] | Oocyte electrophysiology, ratio of currents in presence/absence of compound, 10 μM [2] | LRR ED50 (loss of righting response) (Xenopus laevis tadpoles) | EC50 (Xenopus laevis tadpoles) | melting point | Oocyte electrophysiology, ratio of currents in presence/absence of compound, 0.1 μM [2] | Oocyte electrophysiology, ratio of currents in presence/absence of compound, 1 μM [2] | Gating (10 μM), ratio of compound only current/2 μM GABA current [2] | LSR EC50 (loss of swimming response) (Xenopus laevis tadpoles)
C[C@]12CC[C@@H](O)C[C@@H]1CCC1C3CC[C@@H]4CC[C@H](C#N)C[C@]34CCC12 (stereo partly drawn) [Compound 50, (3α,5α,20S)-3-Hydroxy-13,24-cyclo-18,21-dinorcholane-23-carbonitrile] | 482 ± 20 nM | 2.1 ± 0.2 | 350 ± 70 nM | 950 ± 10 nM | 157 to 159 °C |  |  |  | 
C=C1CCC[C@]23CCC4C(CC[C@H]5C[C@H](O)CC[C@]45C)C2CC[C@H]13 (stereo partly drawn) [Compound 51, (3α,5α)-20-Methylene-13,24-cyclo-18,21-dinorcholan-3-ol] | 181 ± 9 nM | 0.95 ± 0.05 | >10000 nM |  | 211 to 213 °C | 0.90 ± 0.15 | 0.93 ± 0.08 | −0.06 ± 0.06 | None @ 10
C=C1CCC[C@]23CCC4C(CC[C@@H]5C[C@H](O)CC[C@]45C)C2CC[C@H]13 (stereo partly drawn) [Compound 52, (3α,5α)-20-Methylene-13,24-cyclo-18,21-dinorcholan-3-ol] | 213 ± 21 nM | 6.22 ± 0.92 | 4880 ± 1120 nM | > 10000 nM | 131 to 133 °C | 1.57 ± 0.16 | 3.47 ± 0.50 | −0.02 ± 0.02 | 
C[C@]12CC[C@@H](O)C[C@@H]1CCC1C3CC[C@@H]4C(C#N)=CCC[C@]34CCC12 (stereo partly drawn) [Compound 57, (3α,5α)-3-Hydroxy-13,24-cyclo-18,21-dinorchol-20(22)-ene-20-carbonitrile] | 433 ± 30 nM | 3.18 ± 0.24 | 420 nM |  | 193 to 195 °C | 0.91 ± 0.03 | 0.96 ± 0.04 | 0.01 ± 0.02 | None @ 10
C[C@]12CC[C@@H](O)C[C@@H]1CCC1C3CC[C@@H]4C=CC=C[C@]34CCC12 (stereo partly drawn) [Compound 60, (3α,5α)-13,24-Cyclo-18,21-dinorchol-20(22),23-dien-3-ol] | 467 ± 26 nM | 1.1 ± 0.1 | 2700 ± 720 nM | > 10000 nM | 136 to 138 °C |  |  |  | 
C[C@]12CC[C@@H](O)C[C@@H]1CCC1C3CC[C@@H]4CCC=C[C@]34CCC12 (stereo partly drawn) [Compound 61, (3α,5α)-13,24-Cyclo-18,21-dinorchol-23-en-3-ol] | 2000 ± 190 nM | 1.72 ± 0.26 | None @ 10 |  | 166.5 to 169 °C | 1.28 ± 0.08 | 1.47 ± 0.10 | 0.19 ± 0.10 | None @ 10
C[C@]12CC[C@@H](O)C[C@@H]1CCC1C3CC[C@@H]4/C(=C/C#N)CCC[C@]34CCC12 (stereo partly drawn) [Compound 63, (3α,5α,20E)-3-Hydroxy-13,24-cyclo-18-norcholan-20-ene-21-carbonitrile] | 11 ± 1.8 nM | 17.82 ± 3.75 | 40 ± 0 nM | 80 ± 20 nM | 210 to 212 °C and 214 to 216 °C | 6.29 ± 1.71 | 12.34 ± 3.28 | 0.01 ± 0.02 | 
CC12CCC(O)CC1CCC1C2CCC23CCCC(=CC#N)C2CCC13 (stereo not drawn) [Compound 64, (3α,5α,20Z)-3-Hydroxy-13,24-cyclo-18-norcholan-20-ene-21-carbonitrile] | 1080 nM | 1.74 ± 0.11 | 680 ± 150 nM | 10200 nM | 201.5 to 203 °C | 1.19 ± 0.04 | 1.27 ± 0.03 | 0.03 ± 0.04 | 
CC12CCC(O)CC1CCC1C2CCC23CCCC(O)C2CCC13 [Compound 67, (3α,5α,20S)-13,24-cyclo-18,21-dinorcholane-3,20-diol] | 613 ± 92 nM | 1.37 ± 0.15 | None @ 10 |  | 261 to 262 °C | 0.89 ± 0.03 | 0.94 ± 0.08 | −0.01 ± 0.00 | None @ 10
CC12CCC(O)CC1CCC1C2CCC23CCCC(O)C2CCC13 [Compound 68, (3α,5α,20R)-13,24-cyclo-18,21-dinorcholane-3,20-diol] | 1540 nM | 0.79 ± 0.04 | >10000 nM |  | 269 to 271 °C | 0.74 ± 0.05 | 0.74 ± 0.05 | 0.01 ± 0.02 | None @ 10
COC1CCCC23CCC4C(CCC5CC(O)CCC54C)C2CCC13 [Compound 69, (3α,5α,20S)-20-Methoxy-13,24-cyclo-18,21-dinorcholan-3-ol] | 353 ± 38 nM | 1.72 ± 0.28 | None @ 10 |  | 182 to 183 °C | 0.90 ± 0.04 | 1.26 ± 0.09 | 0.00 ± 0.00 | None @ 10
COC1CCCC23CCC4C(CCC5CC(O)CCC54C)C2CCC13 [Compound 70, (3α,5α,20R)-20-Methoxy-13,24-cyclo-18,21-dinorcholan-3-ol] | 868 ± 78 nM | 1.02 ± 0.03 | >10000 nM |  | 200 to 202 °C | 0.74 ± 0.01 | 0.87 ± 0.02 | 0.00 ± 0.00 | None @ 10
C[C@]12CC[C@@H](O)C[C@@H]1CCC1C3CC[C@@H]4[C@H]5O[C@H]5CC[C@]34CCC12 (stereo partly drawn) [Compound 71, (3α,5α,20R,22S)-20,22-Epoxy-13,24-cyclo-18,21-dinorcholan-3-ol] | 596 ± 71 nM | 1.94 ± 0.23 | None @ 10 |  | 206 to 208 °C | 0.90 ± 0.05 | 1.05 ± 0.09 | 0.00 ± 0.00 | None @ 10
C[C@]12CC[C@@H](O)C[C@@H]1CCC1C3CC[C@@H]4[C@@H]5O[C@@H]5CC[C@]34CCC12 (stereo partly drawn) [Compound 72, (3α,5α,20S,22R)-20,22-epoxy-13,24-cyclo-18,21-dinorcholan-3l] | 323 ± 25 nM | 6.39 ± 1.33 | 19300 ± 30800 nM |  | 203.5 to 205 °C | 0.90 ± 0.15 | 2.20 ± 0.25 | −0.01 ± 0.04 | None @ 10
C[C@]12CC[C@@H](O)C[C@@H]1CCC1C3CC[C@@H]4[C@@]5(CCC[C@]34CCC12)CO5 (stereo partly drawn) [Compound 73, (3α,5α,20S)-20,21-Epoxy-13,24-cyclo-18-norcholan-3-ol] | 1290 nM | 4.84 ± 1.05 | 4000 ± 1080 nM |  | 186 to 192 °C (dec.) | 0.88 ± 0.05 | 2.54 ± 0.40 | −0.02 ± 0.04 | None @ 10
